{"source": "patent US10857128B2", "about": "“Methods and compositions for treating inflammatory diseases” (Helmholtz Zentrum München Deutsches Forschungszentrum für …, priority 2017, dated 2020)", "system": "gut microbiota", "experiment": "Gut microbial diversity by 16S rRNA barcoding of caecum samples", "type": "in vivo, Balb/c mice", "description": "Bacterial 16S rRNA gene amplification and diversity analysis. Diversity analysis of 16S rRNA genes was performed by amplicon sequencing. In the first PCR reaction, bacterial genomic DNA was subjected to 16S rRNA gene amplifications using the primer S-D-Bact-0785-a-S-18 [5′-GGMTTAGATACCCBDGTA-3′] (SEQ ID NO: 1) and S-*-Univ-1100-a-A-15 [5′-[…]-3′] (SEQ ID NO: 2) as already mentioned. The reaction mixture of 25 μL in total was composed of 5 ng×μL-1 template DNA, 10 μM of each primer, 10 mM dNTPs (Fermentas, Vilnius, Lithuania), 5% of dimethyl sulfoxide (Sigma-Aldrich, St. Louis, USA), 5 U×μL-1 of FastStart High Fidelity Polymerase (Roche Diagnostics, Mannheim, Germany), 10× FastStart Buffer, and nuclease-free water (Life Technologies, Carlsbad, Calif., USA). The PCR started with an initialization at 95° C. for 5 min, followed by 28 cycles of denaturation at 94° C. for 45 sec, annealing at 44° C. for 45 sec, and elongation at 72° C. for 45 sec. A final elongation step at 72° C. for 5 min completed the PCR reaction. To minimize contamination with primer dimers, generated fragments were cut out of the gel after standard agarose gel electrophoresis and purified with the NucleoSpin Gel and PCR Clean-up Kit (Macherey-Nagel, Düren, Germany).\nDuring the second PCR, Illumina sequencing adapters as well as dual indices were attached to the purified amplicons using the Nextera XT Index Kit (Illumina, San Diego, Calif., USA). The reaction volume was 50 μL in total and contained 5 μL of genomic DNA, 5 μL of each Nextera XT Index Primer, 25 μl 2× KAPA HiFi HotStart ReadyMix (Kapa Biosystems, Wilmington, Mass., USA), and 10 μL of nuclease-free water (Life Technologies, Carlsbad, Calif., USA). The PCR reaction was performed according to the following thermal profile: 95° C. for 3 min, followed by 8 cycles of 95° C. for 30 sec, 55° C. for 30 sec, 72° C. for 30 sec, and finalized by 72° C. for 5 min. The PCR products were cleaned up with the Agencourt AMPure XP system (Beckman Coulter, Brea, Calif., USA), DNA was quantified and the DNA quality was controlled using the 2100 Bioanalyzer Instrument (Agilent Technologies, Santa Clara, Calif., USA), and sequenced with the MiSeq instrument (Illumina, San Diego, Calif., USA).\nFor testing prevention of AAI, mice received 50 mM D-tryptophan starting at least three days before the first sensitization until sacrificing on day 25. For microbiome analyses, the caecum was cut off and immediately stored at −80° C. until further processing.\nMicrobial Diversity. Bacterial diversity was assessed by molecular barcoding of 16S rRNA genes in caecum samples of six animals per group. To this end, DNA was directly extracted from the caecum using a kit based protocol (PowerSoil DNA Isolation Kit, MO BIO Laboratories, Carlsbad, Calif., USA). 315 bp fragments were amplified within the variable region V5 and V6 of the 16S rRNA gene using S-D-Bact-0785-a-S-18[5′-GGMTTAGATACCCBDGTA-3′] (SEQ ID NO: 1) and S-*-Univ-1100-a-A-15 [5′-[…]-3′] (SEQ ID NO: 2) as primers (Klindworth et al., Nucleic Acids Res. 2013 Jan. 7; 41(1):el). Sequencing of amplicons was performed on the Illumina MiSeq platform (Illumina, San Diego, Calif., USA) using paired end technology (see section “Bacterial 16S rRNA gene amplification and diversity analysis” herein). Sequences are deposited in NCBI accession number PRJNA304109.\nReads were analyzed with the software package QIIME. Operational taxonomic units (OTUs) were picked within the 13_8 version of the Greengenes reference database (McDonald et al., ISME J. 2012 March; 6(3):610-8) at a similarity level of 95% sequence identity. Sequences were subsampled to 15000 reads per sample, which reflects the number of reads obtained in the sample with the lowest number of reads after quality control. This number was still sufficient to reach a plateau when collectors' curves were calculated on the basis of OTU95. […]", "data": [{"smiles": "N[C@H](Cc1c[nH]c2ccccc12)C(=O)O", "note": "[D-tryptophan]", "values": [{"measurement": "impact on microbial community composition", "setting": "AAI mice", "result": "significant"}, {"measurement": "abundance of Ruminococcaceae", "setting": "AAI mice with D-Trp", "result": 8.9, "unit": "%"}, {"measurement": "bacterial diversity (alpha-diversity) of AAI mice", "setting": "AAI mice, 50 mM in drinking water", "result": "increased"}, {"measurement": "abundance of Rikenellaceae", "setting": "D-Trp groups", "result": "1.1-2.0%"}, {"measurement": "abundance of Lachnospiraceae", "setting": "D-tryptophan treated AAI mice", "result": 20.6, "unit": "%"}, {"measurement": "abundance of Lachnospiraceae", "setting": "D-tryptophan treated mice without AAI", "result": 27.5, "unit": "%"}, {"measurement": "relative abundance of Odoribacteraceae", "setting": "both groups of supplemented animals", "result": 3.9, "unit": "%"}, {"measurement": "members of the S24-7 family", "setting": "mouse, in vivo", "result": "neither affected"}]}]}
